Test results published in patent publication US20080306057A1, “P13K Inhibitors for the Treatment of Endometriosis” (LABORATORIES SERONO SA, priority 2005, published 2008).
Like-named read-outs stand apart in the source and are kept apart here.

Experiments:
endometriosis = details: cited from earlier work
[1] = test system: endometriotic cells (12Z cells); test: Induction of cell death in endometriotic cells, crystal violet staining; type: cell-based, human; details: for EC50: Homo sapiens, 12Z, crystal violet staining
Excerpt: It is well established that the glandular and stromal tissues from the eutopic endometrium implant in ectopic sites leading to endometriosis. Survival of the ectopic implants is due to a reduced cell death (apoptosis) of these implants, and is presumed to be due to increased expression of survival cell signaling pathways. Proteins or specific small molecule compounds that induce target-specific cell-death of ectopic endometriotic cells without affecting eutopic endometrium or other normal cells could be used as a treatment for eliminating endometriosis. In this regard, we examined the effect of PI3K inhibitor-1 (5-Quinoxalin-6-ylmethylene-thiazolidine-2,4-dione) on its ability to induce cell death of endometriotic cells (12Z cells), an immortalized human epithelial endometriotic cell (Zeitvogel et al. 2001). These cells grow in culture and secrete cytokines in response to TNFα that have been reported to be elevated in the peritoneal fluid of endometriotic patients. The 12Z cells were treated with PI3K inhibitor-1 for 24 h and cell death was measured by crystal violet staining. Since the peritoneal fluids contain elevated concentrations of TNFα, the inhibitor was also tested in the presence of this cytokine. Dead cells get detached from the tissue culture plate and washed away during staining with crystal violet. The intensity of the color will determine the extent of live cells present in the plate. […] TNFα alone had no effect of cell viability (data not shown).

[2] = test system: endometriotic lesions from human endometrial tissue; test: Xenograft nude mouse model of endometriosis; type: in vivo, nude mice
Description: Human endometrial tissue was injected in ovarectomized nude mice to establish the disease (Bruner-Tran et al. 2002). In brief, endometrial biopsies obtained from normal volunteers or from endometriotic patients were cut into small pieces and cultured in the presence of estradiol for 24 h. Treated tissues, were injected either subcutaneously or intraperitoneally into ovarectomized nude mice with estradiol implant. Within 2-4 days of injection, ectopic endometriotic lesions develop in animals. Treatment with either progesterone or PI3K inhibitor-1 was started 10 days following the injection of tissue. The compound was administered at a dose of 10 mg/kg and 30 mg/kg/animal for 28 days. […] Following the completion of treatment, animals were sacrificed, lesions developed from the transplanted tissue found in both subcutaneous and intraperitoneal sites, were measured (both size and number).

endometriosis-like foci = test: Rat model of endometriosis (autologous uterine horn fragment transplant); type: in vivo
Description: Endometriosis was induced in rats as described earlier (D'Antonio et al 2000). In brief, autologous uterine horn fragment was transplanted onto the inner surface of the abdominal wall in rat. Three weeks following transplantation, the size and the viability of the engrafted tissue was measured. One week after the confirmation of the tissue attachment, treatments were started. The control group received the vehicle, the PI3K inhibitor-1 was administered orally (po) at a single dose of 30 mg/kg per day. Treatment with the inhibitor was conducted for nine days, animals were anaesthetized 2 hr following the last treatment and blood samples were collected. Surface area of the endometriosis-like foci was measured. The endometriotic-like foci was removed for histology.

[3] = 10 mg/kg × 28 days, listed as PI3K inhibitor
[4] = 30 mg/kg × 28 days, listed as PI3K inhibitor

Molecule: C#C[C@]1(O)CC[C@H]2[C@@H]3CCC4=Cc5oncc5C[C@]4(C)[C@H]3CC[C@@]21C [Danazol]
- Recurrence rate (endometriosis; after up to 4 years): 40%-50
- Patients suffering from pain with improved symptoms (endometriosis; endometriosis patients): 66-100%

Molecule: O=C1NC(=O)C(=Cc2ccc3nccnc3c2)S1 [PI3K inhibitor-1, 5-Quinoxalin-6-ylmethylene-thiazolidine-2,4-dione]
- Extent of cell death induced, with versus without TNFα ([1]; 24 h): greater in the presence of TNFα
- Amount of live cells in culture ([1]; 24 h, either alone or in the presence of TNFα): reduce the amount of live cells in culture
- EC50 ([1]; in the presence of 15 ng/ml of TNFα, 24 h, read-out: Concentration required to induce 50% cell death (EC50), +TNFα): 6.4 µM
- EC50 ([1]; inhibitor alone, 24 h, read-out: Concentration required to induce 50% cell death (EC50), Alone): > 10 µM
- Effect on the uterine weight and size of the animals ([2]; 10 mg/kg and 30 mg/kg for 28 days): no effect
- Lesion (% Progesterone) Compared to progesterone treated group, decrease ([2]; 10 mg/kg × 28 days): 53% Decrease
- Lesion size, decrease ([2]; 10 mg/kg × 28 days): 10% Decrease
- Lesion (% Progesterone) Compared to progesterone treated group, decrease [2, 3]: 53%
- Lesion size, decrease [2, 3]: 10%
- Lesion (% Progesterone) Compared to progesterone treated group, decrease ([2]; 30 mg/kg × 28 days): 80% Decrease
- Lesion size, decrease ([2]; 30 mg/kg × 28 days): 30% Decrease
- Lesion (% Progesterone) Compared to progesterone treated group, decrease [2, 4]: 80%
- Lesion size, decrease [2, 4]: 30%
- Regression of established endometriotic lesions (endometriosis-like foci; 30 mg/kg per day po, nine days): 64%

Molecule: TNFα
- Cell viability ([1]; TNFα alone, data not shown): no effect

Molecule: antide [reference compound]
- Regression of established endometriotic lesions (endometriosis-like foci; for comparison, data not shown): 94%
